The values that follow come from US12606540B2, “Triazolone compound” (MEDSHINE DISCOVERY INC., priority 2020, dated 2026).

In one series the target is DHODH enzyme (Homo sapiens, UniProt Q02127). The series is described as follows: DHODH enzyme inhibitory activity in vitro (resazurin fluorescence). The class given is biochemical. The conditions noted are these: 5 nM DHODH, 15 μM L-DHO, 80 μM Resazurin. The text has this: The DHODH inhibitory activity of the compounds was detected by the following experimental method, and the experimental results are as shown in Table 1.
Chain of DHODH enzyme (Q02127 whole entry): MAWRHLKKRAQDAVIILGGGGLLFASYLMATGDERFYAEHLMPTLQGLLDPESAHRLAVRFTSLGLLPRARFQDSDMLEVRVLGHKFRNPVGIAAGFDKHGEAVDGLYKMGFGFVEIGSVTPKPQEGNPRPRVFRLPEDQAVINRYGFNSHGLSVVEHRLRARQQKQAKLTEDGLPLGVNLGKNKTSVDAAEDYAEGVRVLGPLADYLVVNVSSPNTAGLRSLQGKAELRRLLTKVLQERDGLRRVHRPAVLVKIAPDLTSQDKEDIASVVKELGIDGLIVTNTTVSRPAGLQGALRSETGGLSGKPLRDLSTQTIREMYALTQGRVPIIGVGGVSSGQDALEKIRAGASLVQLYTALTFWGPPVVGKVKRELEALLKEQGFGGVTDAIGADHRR
DHODH uses flavin mononucleotide FMN to catalyze the oxidation of dihydrooratic acid DHO to produce oratic acid, while the re-oxidation of FMN requires the participation of coenzyme CoQ. In the experiment of detecting the DHODH enzyme activity, CoQ was replaced by Resazurin dye as the final electron acceptor in the enzyme activity reaction. Resazurin solution is blue, and the resorufin generated after reduction has red fluorescence, and the fluorescence signal can be detected under the 535 nm of excitation wavelength and the 590 nm of emission wavelength. The components of the reaction buffer used in the experiment were 100 mM Hepes pH 7.0, 150 mM NaCl, 0.3% CHAPS, 0.5 mg/mL BSA, 0.1 μM FMN and 1% DMSO. The final concentration of DHODH enzyme in the reaction system was 5 nM, and the final concentration of substrate L-DHO was 15 μM, the final concentration of indicator Resazurin was 80 μM. The components of the reaction stop buffer were 100 mM Hepes pH 7.0 and 5 mM Orotate. The specific method was as follows: 2-fold final concentration of the DHODH enzyme solution was mixed with the compound, incubated at room temperature for 20 min, 2-fold final concentration of the substrate mixture solution of L-DHO and resazurin was added and reacted, incubated at room temperature away from light for 45 min. Then the reaction was stopped by adding 2-fold final concentration of the reaction stop buffer to the reaction system, and incubated at room temperature for 10 min, the fluorescence signal of the reaction system was detected with EnVision under the condition of Ex/Em=535/590 nm.
Background: Alamar Blue is a resazurin reagent that responds to reducing activity.

Series [1] has as its system influenza virus A/Weiss/43 (H1N1). Put plainly: Influenza virus cytopathic effect (CPE) experiment in MDCK cells. The class given is cell-based. The conditions noted are these: unidentified influenza virus, H1N1, 120 h, 5 days incubation, CCK8. (In general: Damage to the host cells serves as the signal in cytopathic effect assays.)
Series [2] relates to human peripheral blood mononuclear cells. The series is described as follows: Proliferation inhibition of peripheral blood mononuclear cells (flow cytometry). It counts as cell-based. Particulars: PBMC, PHA-M 5 μg/mL stimulation, 48 hours. As to the method: Flow cytometry was used to detect cell proliferation of human peripheral blood mononuclear cells.
• Cell complete medium: 445 mL of RPMI1640 cell culture+50 mL of fetal bovine serum+5 mL of double antibody • Buffer 1: 9.9 mL of phosphate buffer+0.1 mL of 10% bovine serum protein • Buffer 2: 10 mL of fetal bovine serum+490 mL of phosphate buffer 3.2 Cell Thawing • 3.2.1 20 mL of cell complete medium was added to a 50 mL of centrifuge tube and pre-heated in a 37° C. water bath for 5 minutes; • 3.2.2 the cell cryotubes were removed from the liquid nitrogen storage tank and placed on dry ice for 5-10 minutes to allow the liquid nitrogen to evaporate fully; • 3.2.3 the cell cryotubes were clamped with forceps and placed in the water bath, and shaken gently to thaw the frozen cells quickly; • 3.2.4 the thawed cells were transferred to the pre-heated cell complete medium with a pipette, centrifuged at 350 g for 5 min, then the supernatant was discarded, and the cells was resuspended by adding 10 mL of phosphate buffer; • 3.2.5 counting by cell counter, and cell viability and cell count were recorded. 3.3 Cell Labeling • 3.3.1 Cell proliferation labeling solution (CellTrace™ Violet, 1:1000 dilution) was prepared • 3.3.2 the above mixture was centrifuged at 350 g for 5 minutes, and the supernatant was discarded, then the cells (20×10^6/mL) were resuspended by adding Buffer 1, and the resuspended cells were gently blown by pipette, and an equal volume of cell proliferation labeling solution (prepared in 3.3.1) was added, and gently blown well by pipette; • 3.3.3 incubating in a 5% CO2, 37° C. cell incubator for 18 minutes; • 3.3.4 the 5-fold volume of cell complete medium was added and leaved at room temperature for 5 minutes to terminate the staining reaction; • 3.3.5 the above mixture was centrifuged at 350 g for 5 minutes, and the supernatant was discarded, then the cells were resuspended by adding 10 mL of cell complete medium, counted by cell counter, and cell viability and cell count were recorded; • 3.3.6 the above mixture was centrifuged at 350 g for 5 minutes, and the supernatant was discarded, then the corresponding volume of cell complete medium was added according to the cell counting results, and the density of the resuspended cells was 2×10^6/mL and was to be used. 3.4 Cell Proliferation Stimulation • 3.4.1 50 μL/well prepared cell suspension (1×10^5 cells/well), 50 μL of 4×PHA-M (the final concentration is 5 μg/mL), 50 μL of 4×test compound, 50 μL of cell complete medium were added to the wells of 96-well cell culture plate, and the corresponding control group was set up; (total volume of the reaction system is 200 μL) • 3.4.2 the cell culture plate was placed and incubated in a 5% CO2, 37° C. cell incubator for 48 hours. 3.5 Cell Proliferation Detection • 3.5.1 the above mixture was centrifuged at 350 g for 5 minutes and the supernatant was transferred to a new cell culture plate and stored at −80° C.; • 3.5.2 200 μL of Buffer 2 was add to the wells of the culture plate, and the above mixture was centrifuged at 350 g and the supernatant was discarded; • 3.5.3 cell dead or living staining solution (7-AAD, 1:100 dilution) was prepared with Buffer 2; • 3.5.4 100 μL/well of dead or living staining solution was added, and gently blown and mixed well by pipette, and stained at room temperature for 10 min; • 3.5.5 cell proliferation was detected by flow cytometry analyzer and analyzed by Flowjo software.

For another series, the system named is MDR1 (P-glycoprotein). The series is described as follows: Permeability evaluation on MDR1-MDCK II cell line. Particulars: dog, MDCK-MDR1, pH 7.4.

Each structure is given as a SMILES string.

As a reminder, the IC50 is the concentration at which inhibition is half-maximal. Read a high IC50 as weaker potency in that assay. The EC50 is the concentration at which the effect is half-maximal. Usually Papp A→B stands for how fast a substance crosses the layer from the apical side. As a reminder, the Papp B→A is the apparent permeability from the basolateral to the apical side of a cell layer. By Papp is commonly meant a coefficient for how fast a substance crosses the barrier. The efflux ratio is the permeability from basolateral to apical divided by that in the opposite direction, in the common usage. On DHODH enzyme, `CCn1c(CO)nn(-c2cc(O[C@@H](C)C(F)(F)F)c(/C(F)=C/c3ncccc3Cl)cc2F)c1=O` [Compound 5] displayed an IC50 of 3.5 nM. Also, the 50% effective concentration (EC50) in series [1] worked out at 70 nM. For the same compound, in series [2], 0.8 nM corresponded to half-maximal inhibition (IC50). In the series on MDR1 (P-glycoprotein), the Papp A→B at 150 min, 2 μM is 13.3 ×10⁻⁶ cm/s; the basolateral-to-apical permeability (Papp B→A) at 150 min, 2 μM amounted to 18.2 ×10⁻⁶ cm/s; the Papp at 150 min, 2 μM is more than 5.5 ×10⁻⁶ cm/s; the efflux ratio at 150 min, 2 μM was found to be 1.37.
